The values below come from patent publication US20150141336A1, “Pancreatic Peptide Compounds and Use” (Novo Nordisk A/S, priority 2012, published 2015).

In general, half-life refers to how long it takes for the measured level to halve.

Numbered stars: 1 amine (or outer) side, 2 acyl side, 3 side chain; on linkers, the order of the positions; unused ones are H or OH. Side chains are listed from the residue outwards. Peptide text beside a SMILES is read from it. * marks the point of attachment. C18 diacid = O=C(O)CCCCCCCCCCCCCCCCC(=O)*; γGlu = O=C(O)[C@H](CCC(=O)[*:2])N[*:1]; AEEA = NCCOCCOCC(=O)O

The first data set can be described thus: Assay (II) PK i.v. minipig, in vivo half-life. Set-up: species or system Göttingen mini-pigs. To be noted: male, Göttingen, minipig, iv. An outline of the steps: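 Male Göttingen mini-pigs (18–22 kg, n=5) received 6 nmol/kg i.v. via central catheter, formulated in 50 mM K2HPO4, 0.05% tween 80, pH 8.0. EDTA plasma sampled pre-dose to 240 h, quantified by TFC/LC/MS/MS (MRM, range 1-2000 nmol/l); half-life from non-compartmental analysis per animal.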
In the case of `CC[C@H](C)[C@H](NC(=O)[C@H](Cc1ccc(O)cc1)NC(=O)[C@H](CCCNC(=N)N)NC(=O)[C@H](CCCNC(=N)N)NC(=O)[C@H](CC(C)C)NC(=O)[C@H](CC(=O)O)NC(=O)[C@H](C)NC(=O)[C@H](C)NC(=O)[C@H](Cc1ccc(O)cc1)NC(=O)[C@H](CCC(N)=O)NC(=O)[C@H](C)NC(=O)[C@H](CCSC)NC(=O)[C@H](CCCCNC(=O)COCCOCCNC(=O)COCCOCCNC(=O)CC[C@H](NC(=O)CCCCCCCCCCCCCCCCC(=O)O)C(=O)O)NC(=O)[C@H](CCC(=O)O)NC(=O)[C@@H]1CCCN1C(=O)[C@@H](NC(=O)[C@H](C)NC(=O)[C@H](CC(N)=O)NC(=O)[C@H](CC(=O)O)NC(=O)CNC(=O)[C@@H]1CCCN1C(=O)[C@H](Cc1ccc(O)cc1)NC(=O)[C@@H](NC(=O)[C@@H]1CCCN1C(=O)[C@H](CCC(=O)O)NC(=O)[C@H](CC(C)C)NC(=O)[C@@H]1CCCN1)C(C)C)[C@@H](C)O)C(=O)N[C@@H](CC(N)=O)C(=O)N[C@@H](CCSC)C(=O)N[C@@H](CC(C)C)C(=O)N[C@H](C(=O)N[C@@H](CCCNC(=N)N)C(=O)N1CCC[C@H]1C(=O)N[C@@H](CCCNC(=N)N)C(=O)N[C@@H](Cc1ccc(O)cc1)C(N)=O)[C@@H](C)O` [Compound R] (H-PLEPVYPGDNATPEK([AEEA-AEEA-γGlu-C18 diacid])MAQYAADLRRYINMLTRPRY-NH2; N-terminus and C-terminus assumed), the “Half-life minipig, Assay (II)” value came out at 40 h.

Staying with this data set, now noted: male, Göttingen, minipig, iv, Half-life minipig, Assay (II).
In the case of `CC[C@H](C)[C@H](NC(=O)[C@H](Cc1ccc(O)cc1)NC(=O)[C@H](CCCNC(=N)N)NC(=O)[C@H](CCCNC(=N)N)NC(=O)[C@H](CC(C)C)NC(=O)[C@H](CC(=O)O)NC(=O)[C@H](C)NC(=O)[C@H](C)NC(=O)[C@H](Cc1ccc(O)cc1)NC(=O)[C@H](CCC(N)=O)NC(=O)[C@H](C)NC(=O)[C@H](CCCCNC(=O)COCCOCCNC(=O)COCCOCCNC(=O)CC[C@H](NC(=O)CCCCCCCCCCCCCCCCC(=O)O)C(=O)O)NC(=O)[C@H](CCC(N)=O)NC(=O)[C@H](CCC(=O)O)NC(=O)[C@@H]1CCCN1C(=O)[C@@H](NC(=O)[C@H](C)NC(=O)[C@H](CC(N)=O)NC(=O)[C@H](CC(=O)O)NC(=O)CNC(=O)[C@@H]1CCCN1C(=O)[C@H](Cc1ccc(O)cc1)NC(=O)[C@@H](NC(=O)[C@@H]1CCCN1C(=O)[C@H](CCC(=O)O)NC(=O)[C@H](CC(C)C)NC(=O)[C@@H]1CCCN1)C(C)C)[C@@H](C)O)C(=O)N[C@@H](CC(N)=O)C(=O)N[C@@H](CCSC)C(=O)N[C@@H](CC(C)C)C(=O)N[C@H](C(=O)N[C@@H](CCCNC(=N)N)C(=O)N1CCC[C@H]1C(=O)N[C@@H](CCCNC(=N)N)C(=O)N[C@@H](Cc1ccc(O)cc1)C(N)=O)[C@@H](C)O` [Compound Q] (H-PLEPVYPGDNATPEQK([AEEA-AEEA-γGlu-C18 diacid])AQYAADLRRYINMLTRPRY-NH2; N-terminus and C-terminus assumed), the half-life is 56 h.

For `CC[C@H](C)[C@H](NC(=O)[C@H](Cc1ccc(O)cc1)NC(=O)[C@H](CCCNC(=N)N)NC(=O)[C@H](CCCNC(=N)N)NC(=O)[C@H](CC(C)C)NC(=O)[C@H](CC(=O)O)NC(=O)[C@H](C)NC(=O)[C@H](C)NC(=O)[C@H](CCCCNC(=O)COCCOCCNC(=O)COCCOCCNC(=O)CC[C@H](NC(=O)CCCCCCCCCCCCCCCCC(=O)O)C(=O)O)NC(=O)[C@H](CCC(N)=O)NC(=O)[C@H](C)NC(=O)[C@H](CCSC)NC(=O)[C@H](CCC(N)=O)NC(=O)[C@H](CCC(=O)O)NC(=O)[C@@H]1CCCN1C(=O)[C@@H](NC(=O)[C@H](C)NC(=O)[C@H](CC(N)=O)NC(=O)[C@H](CC(=O)O)NC(=O)CNC(=O)[C@@H]1CCCN1C(=O)[C@H](Cc1ccc(O)cc1)NC(=O)[C@@H](NC(=O)[C@@H]1CCCN1C(=O)[C@H](CCC(=O)O)NC(=O)[C@@H](N)CC(C)C)C(C)C)[C@@H](C)O)C(=O)N[C@@H](CC(N)=O)C(=O)N[C@@H](CCSC)C(=O)N[C@@H](CC(C)C)C(=O)N[C@H](C(=O)N[C@@H](CCCNC(=N)N)C(=O)N1CCC[C@H]1C(=O)N[C@@H](CCCNC(=N)N)C(=O)N[C@@H](Cc1ccc(O)cc1)C(N)=O)[C@@H](C)O` [Compound AV] (H-LEPVYPGDNATPEQMAQK([AEEA-AEEA-γGlu-C18 diacid])AADLRRYINMLTRPRY-NH2; N-terminus and C-terminus assumed), the half-life is 28 h.

As for `CC[C@H](C)[C@H](NC(=O)[C@H](Cc1ccc(O)cc1)NC(=O)[C@H](CCCNC(=N)N)NC(=O)[C@H](CCCNC(=N)N)NC(=O)[C@H](CC(C)C)NC(=O)[C@H](CC(=O)O)NC(=O)[C@H](C)NC(=O)[C@H](C)NC(=O)[C@H](Cc1ccc(O)cc1)NC(=O)[C@H](CCC(N)=O)NC(=O)[C@H](C)NC(=O)[C@H](CCSC)NC(=O)[C@H](CCCCNC(=O)COCCOCCNC(=O)COCCOCCNC(=O)CC[C@H](NC(=O)CCCCCCCCCCCCCCCCC(=O)O)C(=O)O)NC(=O)[C@H](CCC(=O)O)NC(=O)[C@@H]1CCCN1C(=O)[C@@H](NC(=O)[C@H](C)NC(=O)[C@H](CC(N)=O)NC(=O)[C@H](CC(=O)O)NC(=O)CNC(=O)[C@@H]1CCCN1C(=O)[C@H](Cc1ccc(O)cc1)NC(=O)[C@@H](NC(=O)[C@@H]1CCCN1C(=O)[C@H](CCC(=O)O)NC(=O)[C@H](CC(C)C)NC(=O)[C@@H]1CCCN1)C(C)C)[C@@H](C)O)C(=O)N[C@@H](CC(N)=O)C(=O)N[C@@H](CCSC)C(=O)N[C@@H](CC(C)C)C(=O)N[C@H](C(=O)N[C@@H](CCCNC(=N)N)C(=O)N1CCC[C@H]1C(=O)N[C@@H](CCCNC(=N)N)C(=O)N[C@@H](Cc1ccc(O)cc1)C(N)=O)[C@@H](C)O` [Compound R] (H-PLEPVYPGDNATPEK([AEEA-AEEA-γGlu-C18 diacid])MAQYAADLRRYINMLTRPRY-NH2; N-terminus and C-terminus assumed), the half-life is 44 h.

Regarding `CC[C@H](C)[C@H](NC(=O)[C@H](Cc1ccc(O)cc1)NC(=O)[C@H](CCCNC(=N)N)NC(=O)[C@H](CCCNC(=N)N)NC(=O)[C@H](CC(C)C)NC(=O)[C@H](CC(=O)O)NC(=O)[C@H](C)NC(=O)[C@H](C)NC(=O)[C@H](Cc1ccc(O)cc1)NC(=O)[C@H](CCC(N)=O)NC(=O)[C@H](C)NC(=O)[C@H](CCSC)NC(=O)[C@H](CCCCNC(=O)COCCOCCNC(=O)COCCOCCNC(=O)CC[C@H](NC(=O)CCCCCCCCCCCCCCCCC(=O)O)C(=O)O)NC(=O)[C@H](CCC(=O)O)NC(=O)[C@@H]1CCCN1C(=O)[C@@H](NC(=O)[C@H](C)NC(=O)[C@H](CC(N)=O)NC(=O)[C@H](CC(=O)O)NC(=O)CNC(=O)[C@@H]1CCCN1C(=O)[C@H](Cc1ccc(O)cc1)NC(=O)[C@@H](NC(=O)[C@@H]1CCCN1C(=O)[C@H](CCC(=O)O)NC(=O)[C@@H](N)CC(C)C)C(C)C)[C@@H](C)O)C(=O)N[C@@H](CC(N)=O)C(=O)N[C@@H](CCSC)C(=O)N[C@@H](CC(C)C)C(=O)N[C@H](C(=O)N[C@@H](CCCNC(=N)N)C(=O)N1CCC[C@H]1C(=O)N[C@@H](CCCNC(=N)N)C(=O)N[C@@H](Cc1ccc(O)cc1)C(N)=O)[C@@H](C)O` [Compound AZ] (H-LEPVYPGDNATPEK([AEEA-AEEA-γGlu-C18 diacid])MAQYAADLRRYINMLTRPRY-NH2; N-terminus and C-terminus assumed), the half-life is 20 h.

Consider `CC[C@H](C)[C@H](NC(=O)[C@H](Cc1ccc(O)cc1)NC(=O)[C@H](CCCNC(=N)N)NC(=O)[C@H](CCCNC(=N)N)NC(=O)[C@H](CC(C)C)NC(=O)[C@H](CC(=O)O)NC(=O)[C@H](C)NC(=O)[C@H](C)NC(=O)[C@H](Cc1ccc(O)cc1)NC(=O)[C@H](CCC(N)=O)NC(=O)[C@H](C)NC(=O)[C@H](CCSC)NC(=O)[C@H](CCC(N)=O)NC(=O)[C@H](CCC(=O)O)NC(=O)[C@@H]1CCCN1C(=O)[C@@H](NC(=O)[C@H](C)NC(=O)[C@H](CC(N)=O)NC(=O)[C@H](CC(=O)O)NC(=O)CNC(=O)[C@@H]1CCCN1C(=O)[C@H](Cc1ccc(O)cc1)NC(=O)[C@H](CCCCNC(=O)COCCOCCNC(=O)COCCOCCNC(=O)CC[C@H](NC(=O)CCCCCCCCCCCCCCCCC(=O)O)C(=O)O)NC(=O)[C@@H]1CCCN1C(=O)[C@H](CCC(=O)O)NC(=O)[C@@H](N)CC(C)C)[C@@H](C)O)C(=O)N[C@@H](CC(N)=O)C(=O)N[C@@H](CCSC)C(=O)N[C@@H](CC(C)C)C(=O)N[C@H](C(=O)N[C@@H](CCCNC(=N)N)C(=O)N1CCC[C@H]1C(=O)N[C@@H](CCCNC(=N)N)C(=O)N[C@@H](Cc1ccc(O)cc1)C(N)=O)[C@@H](C)O` [Compound BJ], for which the half-life is 29 h.

Take `CC[C@H](C)[C@H](NC(=O)[C@H](Cc1ccc(O)cc1)NC(=O)[C@H](CCCNC(=N)N)NC(=O)[C@H](CCCNC(=N)N)NC(=O)[C@H](CC(C)C)NC(=O)[C@H](CC(=O)O)NC(=O)[C@H](C)NC(=O)[C@H](C)NC(=O)[C@H](Cc1ccc(O)cc1)NC(=O)[C@H](CCC(N)=O)NC(=O)[C@H](C)NC(=O)[C@H](CCCCNC(=O)COCCOCCNC(=O)COCCOCCNC(=O)CC[C@H](NC(=O)CCCCCCCCCCCCCCCCC(=O)O)C(=O)O)NC(=O)[C@H](CCC(N)=O)NC(=O)[C@H](CCC(=O)O)NC(=O)[C@@H]1CCCN1C(=O)[C@@H](NC(=O)[C@H](C)NC(=O)[C@H](CC(N)=O)NC(=O)[C@H](CC(=O)O)NC(=O)CNC(=O)[C@@H]1CCCN1C(=O)[C@H](Cc1ccc(O)cc1)NC(=O)[C@@H](NC(=O)[C@@H]1CCCN1C(=O)[C@H](CCC(=O)O)NC(=O)[C@@H](N)CC(C)C)C(C)C)[C@@H](C)O)C(=O)N[C@@H](CC(N)=O)C(=O)N[C@@H](CCSC)C(=O)N[C@@H](CC(C)C)C(=O)N[C@H](C(=O)N[C@@H](CCCNC(=N)N)C(=O)N1CCC[C@H]1C(=O)N[C@@H](CCCNC(=N)N)C(=O)N[C@@H](Cc1ccc(O)cc1)C(N)=O)[C@@H](C)O` [Compound AY] (H-LEPVYPGDNATPEQK([AEEA-AEEA-γGlu-C18 diacid])AQYAADLRRYINMLTRPRY-NH2; N-terminus and C-terminus assumed): the half-life was 25 h.

Take `CC[C@H](C)[C@H](NC(=O)[C@H](Cc1ccc(O)cc1)NC(=O)[C@H](CCCNC(=N)N)NC(=O)[C@H](CCCNC(=N)N)NC(=O)[C@H](CC(C)C)NC(=O)[C@H](CC(=O)O)NC(=O)[C@H](C)NC(=O)[C@H](C)NC(=O)[C@H](Cc1ccc(O)cc1)NC(=O)[C@H](CCC(N)=O)NC(=O)[C@H](C)NC(=O)[C@H](CCSC)NC(=O)[C@H](CCC(N)=O)NC(=O)[C@H](CCC(=O)O)NC(=O)[C@@H]1CCCN1C(=O)[C@@H](NC(=O)[C@H](C)NC(=O)[C@H](CC(N)=O)NC(=O)[C@H](CC(=O)O)NC(=O)CNC(=O)[C@@H]1CCCN1C(=O)[C@H](Cc1ccc(O)cc1)NC(=O)[C@@H](NC(=O)[C@@H]1CCCN1C(=O)[C@H](CCC(=O)O)NC(=O)[C@@H](N)CC(C)C)C(C)C)[C@@H](C)O)C(=O)N[C@@H](CC(N)=O)C(=O)N[C@@H](CCSC)C(=O)N[C@@H](CCCCNC(=O)COCCOCCNC(=O)COCCOCCNC(=O)CC[C@H](NC(=O)CCCCCCCCCCCCCCCCC(=O)O)C(=O)O)C(=O)N[C@H](C(=O)N[C@@H](CCCNC(=N)N)C(=O)N1CCC[C@H]1C(=O)N[C@@H](CCCNC(=N)N)C(=O)N[C@@H](Cc1ccc(O)cc1)C(N)=O)[C@@H](C)O` [Compound AK] (H-LEPVYPGDNATPEQMAQYAADLRRYINMK([AEEA-AEEA-γGlu-C18 diacid])TRPRY-NH2; N-terminus and C-terminus assumed): the half-life is 80 h.
